Earlier results on one compound are cited in patent publication US10863741B2, “Herbicidal compositions” (HOMS, LLC, priority 2015, dated 2020).

In this data set the test system is male rats. Particulars: chronic exposure.

With `C=C(C)[C@H]1CC=C(C)CC1` [d-limonene], the Tumor incidence entry is given as “significant incidence of renal tubular tumors”.
